Measurements reported in the supplement of paper PMC7108870.

Tests used:
[1] = test system: HEK293sieSTAT3(wt); assay: drug sensitivity score (DSS), viability CellTiter-Glo (DSS (dimensionless)); higher = more growth inhibition; extreme values may be limits of the assay; settings: 72 h; STAT3 variant: wild type
Outline: (§1)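 HEK293 cells bearing a STAT3-dependent luciferase reporter and overexpressing wild-type or mutant STAT3 were incubated with compounds at 5 concentrations in 10-fold steps for 72 hours at 37°C and 5% CO2. CellTox Green fluorescence and then CellTiter-Glo luminescence were measured, and values were normalised to negative and positive control wells. In Breeze, a drug sensitivity score was computed from the dose-response curve area.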

[2] = test system: HEK293sieSTAT3(Y640F); assay: as above; settings: 72 h; STAT3 variant: Y640F (constitutively active)
Outline: as §1

[3] = test system: HEK293sieSTAT3(wt); assay: drug sensitivity score (DSS), cytotoxicity CellTox Green (DSS (dimensionless)); higher = more cytotoxic; extreme values may be limits of the assay; settings: 72 h; STAT3 variant: wild type
Outline: as §1

[4] = test system: HEK293sieSTAT3(Y640F); assay: as above; settings: 72 h; STAT3 variant: Y640F (constitutively active)
Outline: as §1

## CNC(=O)c1ccc(C)c(-n2c(C)cc(OCc3ccc(F)cc3F)c(Br)c2=O)c1 (top concentration tested 1000 nM)
[1]
  drug sensitivity score: 3.62
[2]
  drug sensitivity score: 4.08
[3]
  drug sensitivity score: 0
[4]
  drug sensitivity score: 0

## N#Cc1c(Oc2ccc(F)c(NC(=O)Cc3cccc(C(F)(F)F)c3)c2)ccc2nc(NC(=O)C3CC3)sc12 [TAK-632] (top concentration tested 10000 nM)
[1]
  drug sensitivity score: 8.51
[2]
  drug sensitivity score: 11.1
[3]
  drug sensitivity score: 0
[4]
  drug sensitivity score: 0

## O=C(O)CCCCC(CCSCc1ccccc1)SCc1ccccc1 (stereo not drawn) [CPI-613] (top concentration tested 10000 nM)
[1]
  drug sensitivity score: 2.62
[2]
  drug sensitivity score: 0.32
[3]
  drug sensitivity score: 0.8
[4]
  drug sensitivity score: 0

## CCc1c(C(=O)C(N)=O)c2c(OCC(=O)O)cccc2n1Cc1ccccc1 [Varespladib] (top concentration tested 10000 nM)
[1]
  drug sensitivity score: 0
[2]
  drug sensitivity score: 3.29
[3]
  drug sensitivity score: 0
[4]
  drug sensitivity score: 0

## c1ccc([C@H]2CN3CCSC3=N2)cc1 [Levamisole] (top concentration tested 10000 nM)
[1]
  drug sensitivity score: 0
[2]
  drug sensitivity score: 0
[3]
  drug sensitivity score: 0
[4]
  drug sensitivity score: 0

## CNC(=O)c1ccc(N2C(=S)N(c3ccc(C#N)c(C(F)(F)F)c3)C(=O)C23CCC3)cc1F [RD162] (top concentration tested 10000 nM)
[1]
  drug sensitivity score: 1.68
[2]
  drug sensitivity score: 2.62
[3]
  drug sensitivity score: 0.2
[4]
  drug sensitivity score: 0

## CCCNC(=O)Nc1ccc(Oc2ncnc3cc(OC)c(OC)cc23)cc1Cl [KRN-633] (top concentration tested 2500 nM)
[1]
  drug sensitivity score: 0.2
[2]
  drug sensitivity score: 0.57
[3]
  drug sensitivity score: 0.01
[4]
  drug sensitivity score: 0

## CC(C)c1cc(-c2n[nH]c(=O)n2-c2ccc3c(ccn3C)c2)c(O)cc1O [Ganetespib] (top concentration tested 1000 nM)
[1]
  drug sensitivity score: 27.4
[2]
  drug sensitivity score: 20.6
[3]
  drug sensitivity score: 23.1
[4]
  drug sensitivity score: 6.77

## Nc1ncn([C@@H]2O[C@H](CO)[C@@H](O)[C@H]2O)c(=O)n1 [Azacitidine] (top concentration tested 10000 nM)
[1]
  drug sensitivity score: 2.72
[2]
  drug sensitivity score: 2.86
[3]
  drug sensitivity score: 0.87
[4]
  drug sensitivity score: 0

## COC(=O)c1ccc2c(c1)[nH]c1ncnc(NCCCN3CCCCC3)c12 [UM729] (top concentration tested 10000 nM)
[1]
  drug sensitivity score: 6.2
[2]
  drug sensitivity score: 8.45
[3]
  drug sensitivity score: 4.84
[4]
  drug sensitivity score: 0.81

## Cn1c(=O)c(F)c(Nc2ccc(I)cc2F)c2c(=O)n(C[C@@H](O)CO)cnc21 [TAK-733] (top concentration tested 1000 nM)
[1]
  drug sensitivity score: 0
[2]
  drug sensitivity score: 1.47
[3]
  drug sensitivity score: 0
[4]
  drug sensitivity score: 0

## O=c1ncn2nc(Sc3ccc(F)cc3F)ccc2c1-c1c(Cl)cccc1Cl [VX 745] (top concentration tested 10000 nM)
[1]
  drug sensitivity score: 2.43
[2]
  drug sensitivity score: 4.64
[3]
  drug sensitivity score: 0
[4]
  drug sensitivity score: 0

## C/C(=C\c1csc(C)n1)[C@@H]1C[C@@H]2O[C@]2(C)CCC[C@H](C)[C@H](O)[C@@H](C)C(=O)C(C)(C)[C@@H](O)CC(=O)O1 [Patupilone] (top concentration tested 1000 nM)
[1]
  drug sensitivity score: 21.9
[2]
  drug sensitivity score: 19.1
[3]
  drug sensitivity score: 15.5
[4]
  drug sensitivity score: 4.17

## Nc1ncn([C@H]2C[C@H](O)[C@@H](CO)O2)c(=O)n1 [Decitabine] (top concentration tested 10000 nM)
[1]
  drug sensitivity score: 10.4
[2]
  drug sensitivity score: 7.35
[3]
  drug sensitivity score: 3.31
[4]
  drug sensitivity score: 0.02

## O=C(Nc1cccc(NC(=O)c2cccc(O)c2O)c1)c1cccc(O)c1O [MST-312] (top concentration tested 10000 nM)
[1]
  drug sensitivity score: 13.2
[2]
  drug sensitivity score: 6.74
[3]
  drug sensitivity score: 6.46
[4]
  drug sensitivity score: 1.09

## O=C1CCC(N2C(=O)c3ccccc3C2=O)C(=O)N1 (stereo not drawn) [Thalidomide] (top concentration tested 10000 nM)
[1]
  drug sensitivity score: 2.38
[2]
  drug sensitivity score: 4.79
[3]
  drug sensitivity score: 0
[4]
  drug sensitivity score: 0

## Nc1ccccc1NC(=O)c1ccc(CNc2nccc(-c3cccnc3)n2)cc1 [Mocetinostat] (top concentration tested 10000 nM)
[1]
  drug sensitivity score: 13.1
[2]
  drug sensitivity score: 11.5
[3]
  drug sensitivity score: 6.57
[4]
  drug sensitivity score: 2.68

## CC[C@]1(O)C[C@@H]2CN(CCc3c([nH]c4ccccc34)[C@@](C(=O)OC)(c3cc4c(cc3OC)N(C)[C@H]3[C@@](O)(C(=O)OC)[C@H](OC(C)=O)[C@]5(CC)C=CCN6CC[C@]43[C@@H]65)C2)C1 [Vinblastine] (top concentration tested 1000 nM)
[1]
  drug sensitivity score: 21.8
[2]
  drug sensitivity score: 19.8
[3]
  drug sensitivity score: 19.4
[4]
  drug sensitivity score: 5.1

## O=C(c1ccc(C(=O)N2CCC(N3CCCC3)CC2)c(Nc2ccccc2)c1)N1CCC(N2CCCC2)CC1 [UNC1215] (top concentration tested 30000 nM)
[1]
  drug sensitivity score: 0.89
[2]
  drug sensitivity score: 0.33
[3]
  drug sensitivity score: 0
[4]
  drug sensitivity score: 0

## CO[C@H]1C[C@@H]2CC[C@@H](C)[C@@](O)(O2)C(=O)C(=O)N2CCCC[C@H]2C(=O)O[C@H]([C@H](C)C[C@@H]2CC[C@@H](OP(C)(C)=O)[C@H](OC)C2)CC(=O)[C@H](C)/C=C(\C)[C@@H](O)[C@@H](OC)C(=O)[C@H](C)C[C@H](C)/C=C/C=C/C=C/1C [Ridaforolimus] (top concentration tested 100 nM)
[1]
  drug sensitivity score: 13.9
[2]
  drug sensitivity score: 8.94
[3]
  drug sensitivity score: 0
[4]
  drug sensitivity score: 0

## CC(C)Cn1cnc2c(N)nc3ccccc3c21 [Imiquimod] (top concentration tested 2500 nM)
[1]
  drug sensitivity score: 2.55
[2]
  drug sensitivity score: 4.36
[3]
  drug sensitivity score: 0
[4]
  drug sensitivity score: 0

## O=C1c2c(O)ccc(O)c2C(=O)c2c(NCCNCCO)ccc(NCCNCCO)c21 [Mitoxantrone] (top concentration tested 1000 nM)
[1]
  drug sensitivity score: 9.78
[2]
  drug sensitivity score: 10.6
[3]
  drug sensitivity score: 0.93
[4]
  drug sensitivity score: 0.1

## CN(C)c1nc(N(C)C)nc(N(C)C)n1 [Altretamine] (top concentration tested 10000 nM)
[1]
  drug sensitivity score: 0
[2]
  drug sensitivity score: 0
[3]
  drug sensitivity score: 0
[4]
  drug sensitivity score: 0

## NC(=O)c1cccc(-c2cccc(OC(=O)NC3CCCCC3)c2)c1 [URB597] (top concentration tested 1000 nM)
[1]
  drug sensitivity score: 0.37
[2]
  drug sensitivity score: 0.03
[3]
  drug sensitivity score: 0
[4]
  drug sensitivity score: 0

## Cc1nc(N)sc1-c1ccnc(Nc2ccc(N3CCOCC3)cc2)n1 [CYC-116] (top concentration tested 10000 nM)
[1]
  drug sensitivity score: 9.72
[2]
  drug sensitivity score: 8.51
[3]
  drug sensitivity score: 0.48
[4]
  drug sensitivity score: 0

## COC(=O)C[C@](O)(CCCC(C)(C)O)C(=O)O[C@@H]1C(OC)=C[C@]23CCCN2CCc2cc4c(cc2[C@H]13)OCO4 [Omacetaxine] (top concentration tested 10000 nM)
[1]
  drug sensitivity score: 32.9
[2]
  drug sensitivity score: 28.9
[3]
  drug sensitivity score: 3.27
[4]
  drug sensitivity score: 1.64

## CC(C)(C)c1cnc(CSc2cnc(NC(=O)C3CCNCC3)s2)o1 [SNS-032] (top concentration tested 10000 nM)
[1]
  drug sensitivity score: 26.7
[2]
  drug sensitivity score: 25.3
[3]
  drug sensitivity score: 22.6
[4]
  drug sensitivity score: 10.3

## Cc1cccc(-c2nn3c(c2-c2ccnc4ccc(C(N)=O)cc24)CCC3)n1 [Galunisertib] (top concentration tested 1000 nM)
[1]
  drug sensitivity score: 0
[2]
  drug sensitivity score: 0
[3]
  drug sensitivity score: 0
[4]
  drug sensitivity score: 1.47

## O=P1(NCCCl)OCCCN1CCCl (stereo not drawn) [Ifosfamide] (top concentration tested 10000 nM)
[1]
  drug sensitivity score: 0
[2]
  drug sensitivity score: 0
[3]
  drug sensitivity score: 0
[4]
  drug sensitivity score: 0

## CCN(CC)CCOc1ccc(C(=C(Cl)c2ccccc2)c2ccccc2)cc1 [Clomifene] (top concentration tested 10000 nM)
[1]
  drug sensitivity score: 7.15
[2]
  drug sensitivity score: 5.14
[3]
  drug sensitivity score: 7.9
[4]
  drug sensitivity score: 6.99

## CNC(=O)c1nn(C)c2c1C(C)(C)Cc1cnc(Nc3ccc(N4CCN(C)CC4)cc3)nc1-2 [Milciclib] (top concentration tested 10000 nM)
[1]
  drug sensitivity score: 15
[2]
  drug sensitivity score: 11.2
[3]
  drug sensitivity score: 7.5
[4]
  drug sensitivity score: 1

## CC(C)N(CCCNC(=O)Nc1ccc(C(C)(C)C)cc1)C[C@H]1O[C@@H](n2cc(Br)c3c(N)ncnc32)[C@H](O)[C@@H]1O [SGC0946] (top concentration tested 10000 nM)
[1]
  drug sensitivity score: 7.15
[2]
  drug sensitivity score: 3.05
[3]
  drug sensitivity score: 6.85
[4]
  drug sensitivity score: 0.07

## CN(C)C/C=C/C(=O)Nc1cc2c(Nc3ccc(F)c(Cl)c3)ncnc2cc1O[C@H]1CCOC1 [Afatinib] (top concentration tested 1000 nM)
[1]
  drug sensitivity score: 1.06
[2]
  drug sensitivity score: 0.98
[3]
  drug sensitivity score: 0
[4]
  drug sensitivity score: 0

## C=CCn1c(=O)c2cnc(Nc3ccc(N4CCN(C)CC4)cc3)nc2n1-c1cccc(C(C)(C)O)n1 [MK1775] (top concentration tested 10000 nM)
[1]
  drug sensitivity score: 19.4
[2]
  drug sensitivity score: 20.4
[3]
  drug sensitivity score: 16.5
[4]
  drug sensitivity score: 10.6

## Cc1cc(Nc2ncc(Cl)c(Nc3ccccc3S(=O)(=O)C(C)C)n2)c(OC(C)C)cc1C1CCNCC1 [Ceritinib] (top concentration tested 2500 nM)
[1]
  drug sensitivity score: 1.05
[2]
  drug sensitivity score: 0.86
[3]
  drug sensitivity score: 0.89
[4]
  drug sensitivity score: 0

## O=C(Nc1ccncc1)C(=O)c1cn(Cc2ccc(Cl)cc2)c2ccccc12 [Indibulin] (top concentration tested 10000 nM)
[1]
  drug sensitivity score: 16
[2]
  drug sensitivity score: 10.7
[3]
  drug sensitivity score: 5.57
[4]
  drug sensitivity score: 1.19

## Cc1c(NC(=O)OC[C@@H]2COCCN2)cn2ncnc(Nc3ccc4c(cnn4Cc4cccc(F)c4)c3)c12 (top concentration tested 10000 nM)
[1]
  drug sensitivity score: 6.6
[2]
  drug sensitivity score: 2.59
[3]
  drug sensitivity score: 6.8
[4]
  drug sensitivity score: 0.83

## CC(C)(C)C[C@@H]1N[C@@H](C(=O)N[C@H]2CC[C@H](O)CC2)[C@H](c2cccc(Cl)c2F)[C@]12C(=O)Nc1cc(Cl)ccc12 (top concentration tested 10000 nM)
[1]
  drug sensitivity score: 4.33
[2]
  drug sensitivity score: 3.68
[3]
  drug sensitivity score: 2.72
[4]
  drug sensitivity score: 2.22

## CN1CC[C@H](c2c(O)cc(O)c3c(=O)cc(-c4ccccc4Cl)oc23)[C@H](O)C1 [Alvocidib] (top concentration tested 10000 nM)
[1]
  drug sensitivity score: 24.4
[2]
  drug sensitivity score: 20.1
[3]
  drug sensitivity score: 17.1
[4]
  drug sensitivity score: 9.09

## C=CC(=O)Nc1cc(Nc2nccc(-c3cn(C)c4ccccc34)n2)c(OC)cc1N(C)CCN(C)C [Osimertinib] (top concentration tested 2500 nM)
[1]
  drug sensitivity score: 8.88
[2]
  drug sensitivity score: 6.46
[3]
  drug sensitivity score: 6.55
[4]
  drug sensitivity score: 0.47

## CON(C)C(=O)N1N=C(c2cc(F)ccc2F)S[C@@]1(CCCN)c1ccccc1 [Filanesib] (top concentration tested 1000 nM)
[1]
  drug sensitivity score: 21.2
[2]
  drug sensitivity score: 15
[3]
  drug sensitivity score: 17
[4]
  drug sensitivity score: 0.58

## Cc1ccc(C(=O)Nc2ccc(CN3CCN(C)CC3)c(C(F)(F)F)c2)cc1C#Cc1cnc2cccnn12 [Ponatinib] (top concentration tested 1000 nM)
[1]
  drug sensitivity score: 9.83
[2]
  drug sensitivity score: 6.74

## CCC(C)(C)C(=O)O[C@H]1C[C@@H](C)C=C2C=C[C@H](C)[C@H](CC[C@@H]3C[C@@H](O)CC(=O)O3)[C@H]21 [Simvastatin] (top concentration tested 10000 nM)
[1]
  drug sensitivity score: 3.28
[2]
  drug sensitivity score: 0.89
